Laboratory results taken from patent US12138254B2, “Chronic nightly dosing of lasmiditan for migraine prevention” (Eli Lilly and Company, priority 2018, dated 2024).
Entries after “also recorded” stand apart in the source; their conditions may differ.

Legend:
patients with migraine = assay: GLADIATOR open-label Phase 3 study, long-term intermittent lasmiditan; MIDAS interim analysis; assay type: in vivo, human; details: for change in MIDAS migraine disability, headache days and headache pain/severity over time: lasmiditan 100 mg or 200 mg, up to 12 months
Procedure: The placebo-controlled Phase 3 studies SAMURAI (NCT02439320) and SPARTAN (NCT02605174) evaluated lasmiditan 50 mg [SPARTAN only], 100 mg and 200 mg. […] GLADIATOR (NCT02565186) is a prospective randomized open-label Phase 3 study to evaluate long-term intermittent use of lasmiditan (100 mg or 200 mg) for acute treatment of migraine. An interim analysis of the effects of lasmiditan on migraine disability assessed with the MIDAS scale in GLADIATOR is described below, and has provided surprising and unexpected evidence of persistent beneficial effects in migraine patients.
Patients who completed SAMURAI or SPARTAN were offered participation in GLADIATOR with randomization to lasmiditan 100 mg or lasmiditan 200 mg which represents an uncontrolled, open-label study. […] This interim analysis includes patients with MIDAS score data at baseline of GLADIATOR and post-baseline assessments. The analysis presented is based on the MIDAS questionnaire administered at baseline and at months 3, 6, 9 and 12. An additional analysis was also conducted in the subgroup of patients who completed 12 months. Changes were modelled using a mixed model repeated measures analysis MIDAS measures lost time due to migraine in days over 3 months. Domains included are activity limitations at work, household work or family, social and leisure activity.
Key inclusion criteria were patients who were eligible for SAMURAI or SPARTAN and had at least moderate migraine disability (MIDAS score ≥11). Patients were randomized 1:1 for acute treatment of migraine with either lasmiditan 100 mg for up to 12 months, or lasmiditan 200 mg for up to 12 months. Patients used lasmiditan as the first treatment for each new migraine attack (≤4 hours of Migraine pain onset). […] Assessments of safety and efficacy were conducted, including MIDAS questionnaires at baseline and months 3, 6, 9 and 12. MIDAS Questionnaire (See for example Stewart et al., Neurology 1999; 53:988-94, Stewart et al., Neurology 2001; 56: S20-8) The sum of Questions 1-5 below represents the Total MIDAS score. • 1. […]

[1] = tested on: simulated driving performance; assay: Computer-based driving simulator study in healthy volunteers

## CN1CCC(C(=O)c2cccc(NC(=O)c3c(F)cc(F)cc3F)n2)CC1 [Lasmiditan, 2,4,6-trifluoro-N-[6-(1-methyl-piperidin-4-ylcarbonyl)-pyridin-2-yl]-benzamide]
Patients with migraine; GLADIATOR MIDAS outcomes
  difference between lasmiditan 100 mg and 200 mg doses, any outcome: no significant differences
Patients with migraine
  change in MIDAS migraine disability, headache days and headache pain/severity over time: decreases over time
Patients with migraine; listed as lasmiditan
  change in MIDAS migraine disability, headache days and headache pain/severity over time: large, clinically meaningful improvement; also recorded: a decrease over the 12-month treatment period
[1]; after dosing
  time by which impaired simulated driving performance resolved: ≤ 8 h
[1]; all doses, acute treatment
  driving impairment / simulated driving performance: impair simulated driving performance in a dose-dependent manner; also recorded: associated with driving impairment
